Source: patent publication US3932471A, “Azide” (priority 1973, dated 1976)
Converted amounts (≈) assume the structure as drawn.

How the values were obtained:
Assay type in all cases: in vivo
[1] = tested on: Southern army worm (Prodenia eridania); test: Southern army worm spray test (AW); conditions: 72 h; contact activity rating, 50% mortality, three days
Experimental: (§1) The compounds are evaluated for biological activity against the following representative pests: Mexican bean beetle (Epilachna varivestis), Southern army worm (Prodenia eridania), housefly (Musca domestica), bean aphid (Aphis fabae), and red spider mite (Tetranychus sp.). The last two pests are treated both by contact and systemic application.
(§2) For purposes of comparison, results obtained with known Compound 7472, Compound 7577, and aldicarb are included in the test results. Each test compound is rated using the following scale:
Southern Army Worm Spray Test
Paired fully expanded primary leaves excised from Scarlet runner bean plants are maintained in plastic tubes containing water and sprayed with the test formulation prepared as described in Example 15. After the spray deposit on the leaves is dry, the paired leaves are separated. One leaf is placed onto 1.5 percent water agar and infested with 10 newly hatched Southern army worm larvae. The covered test receptacle is held at 72° F for three days and then the percent mortality is determined. Results of this test are shown in Table 7 as AW (Southern army worm spray test).

[2] = tested on: housefly (Musca domestica); test: Housefly spray test (HF); conditions: 72 h, contact activity rating, 50% mortality, three days
Experimental: as §1, §2
This test determines the insecticidal activity of the compound being tested against adult houseflies, Musca domestica. Stock formulations containing 500 ppm of each test chemical are prepared using the procedure described in Example 15 and are diluted to obtain the appropriate lower concentrations.
Ten adult flies are placed in a cylindrical screen cage 11/2 by 4 inches fabricated from 20-mesh stainless steel screening and are sprayed with 50 ml of the stock or diluted formulation. The flies are supplied food and drink from a dextrose solution by draping a paper wick over the outside of the screen cylinder and are able to feed and drink ad libitum. Percent mortality obtained is determined three days after treatment. Results of this test are shown in Table 7 as HF (housefly spray test).

[3] = tested on: Lygus Bug; test: Systemic test against Lygus bug
Text: (§3) Systemic Test of Compound 7268 Against Lygus Bug and Spotted Cucumber Beetle
(§4) The techniques used are essentially the same for the systemic tests described above in Example 15. The test compound is Compound 7268. There is one Sieva bean plant per pot and five adult insects are caged on each plant. One plant is used for each test species.

[4] = tested on: Spotted Cucumber Beetle; test: Systemic test against spotted cucumber beetle; conditions: Diabrotica undecimpunctata
Text: as §3, §4

[5] = tested on: Southern corn rootworm (Diabrotica undecimpunctata howardi); test: Soil activity against Southern corn rootworm; conditions: 120 h
Experimental: Activity of Compound 7268 Against Southern Corn Rootworm
The test organism is a strain of Southern corn rootworm (Diabrotica undecimpunctata howardi) resistant to chlorinated hydrocarbon insecticides and the test compound is Compound 7268. Duplicate samples of sand-soil mixtures are treated with appropriate volumes of test formulation to give the desired dosages. The sand-soil samples are in covered paper cups, and several hours after drenching, all cups are given a thorough shaking to provide complete and uniform mixing of the chemical throughout the soil. One day after treatment, two corn seedlings and five rootworms are placed into each cup and the lids replaced. Five days later, mortality is determined.

[6] = tested on: melon aphid (Aphis gosyppi); test: Systemic activity against melon aphid; conditions: cucumber seedlings
Text: Systemic Activity of Compound 7268 Against Melon Aphid
The techniques used are essentially the same as for the systemic tests described above in Example 15. The test plants are cucumber seedlings; the test compound is Compound 7268; and the pest is the melon aphid (Aphis gosyppi).

[7] = tested on: Mexican Bean Beetle Larvae; test: Residual systemic activity against Mexican bean beetle larvae; conditions: Epilachna varivestis
Text: Residual Systemic Activity of Compound 7268 Against Mexican Bean Beetle Larvae
Three furrows are opened in soil contained in 8 × 10 × 3 inch fiber pans and 12 Pinto bean seeds are evenly distributed in each furrow. The test compound is Compound 7268. Appropriate volumes of test formulation to give the desired dosages are applied over the seeds in the open furrows, and the furrows are immediately closed. At the indicated weekly intervals, one leaf is harvested from each row, placed onto water agar in a plastic Petri dish, and infested with 10 one-day-old bean beetle larvae. Mortality is determined three days later.

Structure (SMILES): CNC(=O)ON=C(CSC)C(C)(C)C [Compound 7268, 3,3-dimethyl-2-methylcarbamyloximino-1-methylthiobutane]
- LC50 [1]: > 500 µg/mL
- LC50 [2]: 250 to 500 µg/mL (≈ 1150 to 2290 µM)
- % Mortality ([3]; 0.5 lb/A, 3 days): 0%
- % Mortality ([3]; 0.5 lb/A, 4 days): 60%
- % Mortality ([3]; 0.5 lb/A, 6 days): 80%
- % Mortality ([3]; 1 lb/A, 3 days): 80%
- % Mortality ([3]; 1 lb/A, 4 days): 80%
- % Mortality ([3]; 1 lb/A, 6 days): 100%
- % Mortality ([3]; 2 lb/A, 3 days): 100%
- % Mortality ([3]; 2 lb/A, 4 days): 100%
- % Mortality ([3]; 2 lb/A, 6 days): 100%
- mortality at 560.425 g/ha ([4]; 72 h): 20%
- mortality at 1120.85 g/ha ([4]; 72 h): 30%
- mortality at 2241.7 g/ha ([4]; 72 h): 60%
- mortality at 560.425 g/ha ([4]; 96 h): 40%
- mortality at 1120.85 g/ha ([4]; 96 h): 100%
- mortality at 2241.7 g/ha ([4]; 96 h): 100%
- mortality at 560.425 g/ha ([4]; 144 h): 80%
- mortality at 1120.85 g/ha ([4]; 144 h): 100%
- mortality at 2241.7 g/ha ([4]; 144 h): 100%
- mortality at 1 lb/6" A [5]: 90%
- mortality at 1.25 lb/6" A [5]: 100%
- mortality at 2.5 lb/6" A [5]: 100%
- % Control ([6]; 0.062 lb/A): 100%
- % Control ([6]; 0.125 lb/A): 100%
- % Control ([6]; 0.25 lb/A): 100%
- % Control ([6]; 0.5 lb/A): 100%
- mortality at 280.212 g/ha ([7]; 504 h): 100%
- mortality at 560.425 g/ha ([7]; 504 h): 100%
- mortality at 1120.85 g/ha ([7]; 504 h): 100%
- mortality at 280.212 g/ha ([7]; 1176 h): 100%
- mortality at 560.425 g/ha ([7]; 1176 h): 100%
- mortality at 1120.85 g/ha ([7]; 1176 h): 100%
- mortality at 280.212 g/ha ([7]; 1680 h): 100%
- mortality at 560.425 g/ha ([7]; 1680 h): 100%
- mortality at 1120.85 g/ha ([7]; 1680 h): 95%
- mortality at 280.212 g/ha ([7]; 1848 h): 95%
- mortality at 560.425 g/ha ([7]; 1848 h): 70%
- mortality at 1120.85 g/ha ([7]; 1848 h): 95%
